Data from article PMC3707936 (Molecular cancer therapeutics, 2013).
Like-named read-outs stand apart in the source and are kept apart here. *1 amine or outer side, *2 acyl side, *3 side chain or, on linkers, in order; H or OH if unused. Where a SMILES comes first, the peptide text is derived from it. Bridges are numbered along the chain shown (N, C = ends). Roman numbers before positions name the chains, in order. [ ]: non-standard residue; d: D form. Actinocin(9to1) = Cc1c2oc3c(C)ccc(C(=O)[*:1])c3nc-2c(C(=O)[*:2])c(N)c1=O; NMeV = CN[C@H](C(=O)O)C(C)C; Sar = CNCC(=O)O

Key:
Assay type in all cases: cell-based
GIST 882 cells [1] = test: Quantitative drug screen, CellTiter-Blue cell viability, GIST 882; settings: Homo sapiens, GIST882, 72 h, read-out: IC50 GIST 882
GIST T1-10R cells [2] = test: Quantitative drug screen, CellTiter-Blue cell viability, GIST T1-10R; settings: 72 h, read-out: IC50 GIST TI-10R
ULTR cells = test: Quantitative drug screen, CellTiter-Blue cell viability, ULTR; settings: read-out: IC50 ULTR
GIST 882 cells [3] = test: Hit validation cell proliferation, 12-point dose-response, GIST 882; settings: Homo sapiens, GIST882, 72 h, read-out: IC50 GIST 882
GIST T1-10R cells [4] = test: Hit validation cell proliferation, 12-point dose-response, GIST T1-10R; settings: 72 h, read-out: IC50 GIST T1-10R
Hs 919.T. cells [5] = test: Hit validation cell proliferation, 12-point dose-response, Hs 919.T.; settings: read-out: IC50 Hs 919.T.
Hs 919.T. cells [6] = test: Drug screen assay in Hs 919.T. cell line at 1 μM; settings: 72 h; for inhibition at 1 µM: read-out: inhibition against Hs 919.T. cell proliferation
GIST-T1 cells = test: Quantitative drug screen, CellTiter-Blue cell viability, GIST-T1; settings: read-out: IC50 GIST-T1

| Molecule | IC50 (GIST 882 cells [1]) | IC50 (GIST T1-10R cells [2]) | IC50 (ULTR cells; 72 h) | inhibition at 1 µM (Hs 919.T. cells [6]) | other results |
| --- | --- | --- | --- | --- | --- |
| CCCSc1ccc2nc(NC(=O)OC)[nH]c2c1 [Albendazole] | > 1000 nM | > 1000 nM | 320 nM | – | – |
| COc1cc(NS(C)(=O)=O)ccc1Nc1c2ccccc2nc2ccccc12 [Amsacrine] | > 1000 nM | > 1000 nM | > 1000 nM | – | – |
| CC(C)C[C@H](NC(=O)[C@H](Cc1ccccc1)NC(=O)c1cnccn1)B(O)O [Bortezomib] | < 70 nM | 500 nM | < 70 nM | > 50% | IC50 (GIST 882 cells [3]): 2 ± 0.3 nM; IC50 (GIST T1-10R cells [4]): 1 ± 1 nM; IC50 (Hs 919.T. cells [5]): 150 ± 10 nM |
| CCOC(=O)n1ccn(C)c1=S [Carbimazole] | 50 nM | 180 nM | < 70 nM | – | – |
| CCN(CC)CCCC(C)Nc1ccnc2cc(Cl)ccc12 (centres unmarked) [Chloroquine] | 460 nM | > 1000 nM | > 1000 nM | – | – |
| Nc1nc(Cl)nc2c1ncn2[C@H]1C[C@H](O)[C@@H](CO)O1 [Cladribine] | 760 nM | > 1000 nM | 540 nM | – | – |
| Nc1nc(Cl)nc2c1ncn2[C@@H]1O[C@H](CO)[C@@H](O)[C@@H]1F [Clofarabine] | 990 nM | > 1000 nM | 180 nM | – | – |
| Cc1c2oc3c(C)ccc(C(=O)N[C@@H]4C(=O)N[C@H](C(C)C)C(=O)N5CCC[C@H]5C(=O)N(C)CC(=O)N(C)[C@@H](C(C)C)C(=O)O[C@@H]4C)c3nc-2c(C(=O)N[C@@H]2C(=O)N[C@H](C(C)C)C(=O)N3CCC[C@H]3C(=O)N(C)CC(=O)N(C)[C@@H](C(C)C)C(=O)O[C@@H]2C)c(N)c1=O [Dactinomycin] (I: T[dV]P[Sar][NMeV] / II: T[dV]P[Sar][NMeV]; ester I:1-I:C, II:1-II:C; linker I:N-II:N via Actinocin(9to1)) | < 70 nM | > 1000 nM | < 70 nM | > 50% | – |
| C#C[C@]1(O)CC[C@H]2[C@@H]3CCC4=Cc5oncc5C[C@]4(C)[C@H]3CC[C@@]21C [Danazol] | 670 nM | > 1000 nM | > 1000 nM | – | – |
| COc1cccc2c1C(=O)c1c(O)c3c(c(O)c1C2=O)C[C@@](O)(C(C)=O)C[C@@H]3O[C@H]1C[C@H](N)[C@H](O)[C@H](C)O1 [Daunorubicin] | 170 nM | > 1000 nM | < 70 nM | > 50% | – |
| C[C@H]1O[C@@H](O[C@H]2[C@@H](O)C[C@H](O[C@H]3[C@@H](O)C[C@H](O[C@H]4CC[C@@]5(C)[C@H](CC[C@@H]6[C@@H]5CC[C@]5(C)[C@@H](C7=CC(=O)OC7)CC[C@]65O)C4)O[C@@H]3C)O[C@@H]2C)C[C@H](O)[C@@H]1O [Digitoxin] | 160 nM | > 1000 nM | < 70 nM | – | – |
| C[C@H]1O[C@@H](O[C@H]2[C@@H](O)C[C@H](O[C@H]3[C@@H](O)C[C@H](O[C@H]4CC[C@@]5(C)[C@H](CC[C@@H]6[C@@H]5C[C@@H](O)[C@]5(C)[C@@H](C7=CC(=O)OC7)CC[C@]65O)C4)O[C@@H]3C)O[C@@H]2C)C[C@H](O)[C@@H]1O [Digoxin] | 790 nM | 930 nM | 160 nM | > 50% | – |
| COc1cccc2c1C(=O)c1c(O)c3c(c(O)c1C2=O)C[C@@](O)(C(=O)CO)C[C@@H]3O[C@H]1C[C@H](N)[C@H](O)[C@H](C)O1 [Doxorubicin] | 80 nM | > 1000 nM | 160 nM | > 50% | – |
| COc1cc([C@@H]2c3cc4c(cc3[C@@H](O[C@@H]3O[C@@H]5CO[C@@H](C)O[C@H]5[C@H](O)[C@H]3O)[C@H]3COC(=O)[C@H]23)OCO4)cc(OC)c1O [Etoposide] | 30 nM | > 1000 nM | > 1000 nM | – | – |
| Nc1nc(F)nc2c1ncn2[C@@H]1O[C@H](COP(=O)(O)O)[C@@H](O)[C@@H]1O [Fludarabine Phosphate] | > 1000 nM | 810 nM | > 1000 nM | – | IC50 (GIST 882 cells [3]): 540 ± 30 nM; IC50 (GIST T1-10R cells [4]): 840 ± 200 nM |
| CN(C)c1ccc(C(=C2C=CC(=[N+](C)C)C=C2)c2ccc(N(C)C)cc2)cc1 [Gentian Violet] | 250 nM | 960 nM | 160 nM | – | – |
| CC(=O)[C@]1(O)Cc2c(O)c3c(c(O)c2[C@@H](O[C@H]2C[C@H](N)[C@H](O)[C@H](C)O2)C1)C(=O)c1ccccc1C3=O [Idarubicin] | 50 nM | 690 nM | < 70 nM | > 50% | IC50 (GIST 882 cells [3]): 130 ± 40 nM; IC50 (GIST T1-10R cells [4]): 50 ± 10 nM; IC50 (Hs 919.T. cells [5]): 70 ± 3 nM |
| COC(=O)Nc1nc2ccc(C(=O)c3ccccc3)cc2[nH]1 [Mebendazole] | > 1000 nM | > 1000 nM | 730 nM | – | – |
| O=C1c2c(O)ccc(O)c2C(=O)c2c(NCCNCCO)ccc(NCCNCCO)c21 [Mitoxantrone] | 80 nM | > 1000 nM | < 70 nM | > 50% | – |
| Cc1cn(-c2cc(NC(=O)c3ccc(C)c(Nc4nccc(-c5cccnc5)n4)c3)cc(C(F)(F)F)c2)cn1 [Nilotimb] | – | – | – | – | IC50 (GIST-T1 cells; primary screen, 72 h, 10 μM to […] twofold dilutions, * = IC50 < 0.07 μM and drug showed no dose response): 380 nM |
| C[C@@H]1O[C@@H](O[C@H]2C[C@@H](O)[C@]3(CO)[C@H]4[C@H](O)C[C@]5(C)[C@@H](C6=CC(=O)OC6)CC[C@]5(O)[C@@H]4CC[C@]3(O)C2)[C@H](O)[C@H](O)[C@H]1O [Ouabain] | 30 nM | 240 nM | < 70 nM | – | – |
| CC(=O)O[C@H]1C(=O)[C@@]2(C)[C@H]([C@H](OC(=O)c3ccccc3)[C@]3(O)C[C@H](OC(=O)[C@H](O)[C@@H](NC(=O)c4ccccc4)c4ccccc4)C(C)=C1C3(C)C)[C@]1(OC(C)=O)CO[C@@H]1C[C@@H]2O [Paclitaxel] | > 1000 nM | > 1000 nM | 200 nM | – | – |
| COc1cc([C@@H]2c3cc4c(cc3[C@@H](O[C@@H]3O[C@@H]5CO[C@@H](c6cccs6)O[C@H]5[C@H](O)[C@H]3O)[C@H]3COC(=O)[C@H]23)OCO4)cc(OC)c1O [Teniposide] | 90 nM | > 1000 nM | 190 nM | – | – |
| CC[C@@]1(O)C(=O)OCc2c1cc1n(c2=O)Cc2cc3c(CN(C)C)c(O)ccc3nc2-1 [Topotecan] | 440 nM | > 1000 nM | 90 nM | – | – |
| CCC1=C[C@@H]2CN(C1)Cc1c([nH]c3ccccc13)[C@@](C(=O)OC)(c1cc3c(cc1OC)N(C)[C@H]1[C@@](O)(C(=O)OC)[C@H](OC(C)=O)[C@]4(CC)C=CCN5CC[C@]31[C@@H]54)C2 [Vinorelbine] | > 1000 nM | > 1000 nM | 80 nM | > 50% | – |
| Plicamycin | – | – | – | – | IC50 (GIST-T1 cells): 350 nM; IC50 (ULTR cells): 150 nM; inhibition against Hs 919.T. cell proliferation (Hs 919.T. cells [6]; 1 μM drug): greater than 50% |
